These results are taken from patent publication US10189794B2, “Heteroaryl compounds and uses thereof” (Celgene CAR LLC, priority 2013, dated 2019).

For the first assay, the system named is MDA-MB-453 cells. The assay is described as follows: Cell proliferation, MDA-MB-453 (CellTiter Glo). It is filed as cell-based. The conditions noted are these: Homo sapiens; MDA-MB-453; 96 hr; read-out: Cell Proliferation GI50 (nM) MDA. As for the experimental part:
For both MDA-MB-453 and Huh7 cells the starting density was 5000 cells per well. The cells were allowed to settle down for 4 hr and were then treated with 5, 1.25, 0.31, 0.078, 0.020 or 0.005 μM of test compound for: 96 hr for MDA-MB-453 and 120 hr for Huh7 cells. Cell viability was determined by CellTiter Glo (Promega, Madison, Wis.) and the results were converted to cell numbers using a standard curve. The growth inhibition (GI50) values were determined by Graph Pad Prism.
The results of these experiments show the ability of compounds to inhibit cell growth in FGFR dependant cell lines and are depicted in Table 8, in the columns titled “Cell Proliferation GI50 (nM)”. MDA-MB-453 cell results fall under the heading “MDA” and Huh7 cell results fall under the heading “Huh.”
For orientation: In ATP-based viability assays light output follows the ATP content of the culture.
Turning to `C=CC(=O)Nc1ccccc1Nc1ncc2c(n1)N(C1CC1)C(=O)N(c1c(Cl)c(OC)cc(OC)c1Cl)C2` [I-23], the GI50 is less than 100 nM.

Take `C=CC(=O)Nc1ccccc1Nc1ncc2c(n1)N(Cc1ccc(Cl)c(OC)c1)C(=O)N(c1c(Cl)c(OC)cc(OC)c1Cl)C2` [I-24]: the GI50 is less than 100 nM.

As for `C=CC(=O)Nc1cc(N2CCCCC2)ccc1Nc1ncc2c(n1)N(C)C(=O)N(c1cc(OC)cc(OC)c1)C2` [I-31], the GI50 fell in the range of 101 to 500 nM. Same read-out and setting: as for `C=CCN1C(=O)N(c2cc(OC)cc(OC)c2)Cc2cnc(Nc3ccccc3NC(=O)C=C)nc21` [I-32], the figure is 501 to 999 nM. Same read-out and setting: for `C=CC(=O)Nc1ccccc1Nc1ncc2c(n1)N(C1CC1)C(=O)N(c1cc(OC)cc(OC)c1)C2` [I-34] the value was 501 to 999 nM; for `C=CS(=O)(=O)Nc1ccccc1Nc1ncc2c(n1)N(C)C(=O)N(c1cc(OC)cc(OC)c1)C2` [I-67], 501 to 999 nM.

Regarding `C=CC(=O)Nc1ccccc1Nc1ncc2c(n1)N(C)C(=O)N(c1cc(OC)cc(OC)c1Cl)C2` [I-75], the GI50 was in the range of 101 to 500 nM. On the same count and under the same terms, as for `C=CC(=O)Nc1cc(-c2cnn(C)c2)ccc1Nc1ncc2c(n1)N(C)C(=O)N(c1cc(OC)cc(OC)c1)C2` [I-77], the figure is 101 to 500 nM.

A further assay concerns Huh7 cells. The assay is described as follows: Cell proliferation, Huh7 (CellTiter Glo). It counts as cell-based. The conditions noted are these: Homo sapiens, Huh-7; Huh7; 120 hr; read-out: Cell Proliferation GI50 (nM) HUH. As for the experimental part: The growth inhibition (GI50) values were determined by Graph Pad Prism.
Regarding `C=CC(=O)NC1CCCCC1Nc1ncc2c(n1)N(CCF)C(=O)N(c1c(Cl)c(OC)cc(OC)c1Cl)C2` (racemic) [I-106], the GI50 was more than 1000 nM. `C=CC(=O)NC1CN(C)CC1Nc1ncc2c(n1)N(C)C(=O)N(c1c(Cl)c(OC)cc(OC)c1Cl)C2` (racemic) [I-138]: the GI50 is more than 1000 nM. Same read-out and setting: as for `C=CC(=O)NC1CN(C(C)=O)CC1Nc1ncc2c(n1)N(C)C(=O)N(c1c(Cl)c(OC)cc(OC)c1Cl)C2` (racemic) [I-139], the figure is 501 to 999 nM. Same read-out and setting: as for `C=CC(=O)NC1CN(C2CCN(C)CC2)CC1Nc1ncc2c(n1)N(C)C(=O)N(c1c(Cl)c(OC)cc(OC)c1Cl)C2` (racemic) [I-154], the figure is more than 1000 nM; as for `C=CC(=O)Nc1ccccc1Nc1ncc2c(n1)N(CC(O)CO)C(=O)N(c1cc(OC)cc(OC)c1)C2` (centres unmarked) [I-33], more than 1000 nM. On the same count and under the same terms, as for `C=CC(=O)Nc1ccccc1Nc1ncc2c(n1)N(C1CCCN(C(=O)OC(C)(C)C)C1)C(=O)N(c1cc(OC)cc(OC)c1)C2` (centres unmarked) [I-36], the figure is more than 1000 nM; as for `C=CC(=O)Nc1cc(C)ccc1Nc1ncc2c(n1)N(C)C(=O)N(c1cc(OC)cc(OC)c1)C2` [I-41], more than 1000 nM; as for `C=CC(=O)Nc1cc(C(F)(F)F)ccc1Nc1ncc2c(n1)N(C)C(=O)N(c1cc(OC)cc(OC)c1)C2` [I-42], more than 1000 nM. `C=CC(=O)Nc1ccccc1Nc1ncc2c(n1)N(C1CCCNC1)C(=O)N(c1cc(OC)cc(OC)c1)C2` (centres unmarked) [I-43]: the GI50 is 101 to 500 nM.

With `C=CC(=O)Nc1ccc(C(F)(F)F)cc1Nc1ncc2c(n1)N(C)C(=O)N(c1cc(OC)cc(OC)c1)C2` [I-50], the GI50 is more than 1000 nM. On the same count and under the same terms, as for `C=CC(=O)Nc1ccccc1Nc1ncc2c(n1)N(CCF)C(=O)N(c1cc(OC)cc(OC)c1)C2` [I-102], the figure is more than 1000 nM; as for `C=CC(=O)NC1CCCCC1Nc1ncc2c(n1)N(CC(F)F)C(=O)N(c1c(F)c(OC)cc(OC)c1F)C2` (centres unmarked) [I-115], more than 1000 nM; as for `C=CC(=O)Nc1nn(C)cc1Nc1ncc2c(n1)N(C)C(=O)N(c1c(Cl)c(OC)cc(OC)c1Cl)C2` [I-117], 101 to 500 nM.

With `C=CC(=O)Nc1ccccc1Nc1ncc2c(n1)NC(=O)N(c1cc(OC)cc(OC)c1)C2` [I-125], the GI50 was more than 1000 nM. Same read-out and setting: as for `C=CC(=O)Nc1cc(N2CCN(C(=O)CCCC(=O)NCCCOCCOCCOCCCNC(=O)CCCC[C@@H]3SC[C@@H]4NC(=O)N[C@@H]43)CC2)ccc1Nc1ncc2c(n1)N(C)C(=O)N(c1c(Cl)c(OC)cc(OC)c1Cl)C2` [I-127], the figure is more than 1000 nM; as for `C=CC(=O)NC1CCCCC1Nc1ncc2c(n1)N(Cc1ccn(C)c(=O)c1)C(=O)N(c1c(Cl)c(OC)cc(OC)c1Cl)C2` (centres unmarked) [I-132], more than 1000 nM; as for `C=CC(=O)NC1CCCCC1Nc1ncc2c(n1)N(Cc1csc(C)n1)C(=O)N(c1c(Cl)c(OC)cc(OC)c1Cl)C2` (centres unmarked) [I-137], 501 to 999 nM.

Consider `C=CC(=O)N[C@H]1COCC[C@H]1Nc1ncc2c(n1)N(C)C(=O)N(c1c(Cl)c(OC)cc(OC)c1Cl)C2` [I-140], for which the GI50 lay within 501 to 999 nM. On the same count and under the same terms, as for `C=CC(=O)Nc1cc(-c2nnn(C)n2)ccc1Nc1ncc2c(n1)N(C)C(=O)N(c1cc(OC)cc(OC)c1)C2` [I-146], the figure is more than 1000 nM; as for `C=CC(=O)Nc1cc(C(=O)NC2CCN(C)CC2)ccc1Nc1ncc2c(n1)N(C)C(=O)N(c1cc(OC)cc(OC)c1)C2` [I-151], more than 1000 nM. The same measure, in the same setting: for `C=CC(=O)Nc1cc(-c2nnnn2C)ccc1Nc1ncc2c(n1)N(C)C(=O)N(c1c(Cl)c(OC)cc(OC)c1Cl)C2` [I-153] the value was 101 to 500 nM; for `C=CC(=O)N[C@@H]1COC[C@@H]1Nc1ncc2c(n1)N(C)C(=O)N(c1c(Cl)c(OC)cc(OC)c1Cl)C2` [I-185], more than 1000 nM. For the compound `C=CC(=O)N[C@H]1COC[C@H]1Nc1ncc2c(n1)N(C)C(=O)N(c1c(Cl)c(OC)cc(OC)c1Cl)C2` [I-186], the GI50 was less than 100 nM. Consider `C=CC(=O)NC1COCC1Nc1ncc2c(n1)N(C)C(=O)N(c1c(F)c(OC)cc(OC)c1F)C2` (centres unmarked) [I-198], for which the GI50 lay in the range of 101 to 500 nM.

Regarding `C=CC(=O)NC1CN(c2ccncn2)CC1Nc1ncc2c(n1)N(C)C(=O)N(c1c(Cl)c(OC)cc(OC)c1Cl)C2` (centres unmarked) [I-201], the GI50 lay within 501 to 999 nM.

`C=CC(=O)NC1COCC1Nc1ncc2c(n1)N(C)C(=O)N(c1c(F)c(OC)cc(OC)c1Cl)C2` (centres unmarked) [I-206]: the GI50 is less than 100 nM. On the same count and under the same terms, for `C=CC(=O)NC1COCC1Nc1ncc2c(n1)N(Cc1cscn1)C(=O)N(c1c(Cl)c(OC)cc(OC)c1Cl)C2` (centres unmarked) [I-210] the value was 101 to 500 nM.

With `C=CC(=O)NC1COCC1Nc1ncc2cc(-c3c(Cl)c(OC)cc(OC)c3Cl)c(=O)n(C)c2n1` (centres unmarked) [I-211], the GI50 is less than 100 nM. Turning to `C=CC(=O)NC1COCC1Nc1ncc2c(n1)N(CC1CC1)C(=O)N(c1c(Cl)c(OC)cc(OC)c1Cl)C2` (centres unmarked) [I-212], the GI50 is less than 100 nM. On the same count and under the same terms, as for `C=CC(=O)NC1COCC1Nc1ncc2c(n1)N(Cc1cnn(C)c1)C(=O)N(c1c(Cl)c(OC)cc(OC)c1Cl)C2` (centres unmarked) [I-213], the figure is less than 100 nM; as for `C=CC(=O)NC1COCC1Nc1ncc2c(n1)N(Cc1ccn(C)n1)C(=O)N(c1c(Cl)c(OC)cc(OC)c1Cl)C2` (centres unmarked) [I-215], 101 to 500 nM; as for `C=CC(=O)NC1COCC1Nc1ncc2c(n1)N(Cc1cc[nH]n1)C(=O)N(c1c(Cl)c(OC)cc(OC)c1Cl)C2` (centres unmarked) [I-216], 101 to 500 nM.

With `C=CC(=O)NC1COCC1Nc1ncc2c(n1)N(CC)C(=O)N(c1c(Cl)c(OC)cc(OC)c1Cl)C2` (centres unmarked) [I-217], the GI50 was less than 100 nM. On the same count and under the same terms, as for `C=CC(=O)N[C@H]1CCCC[C@H]1Nc1ncc2cc(-c3c(Cl)c(OC)cc(OC)c3Cl)c(=O)n(C)c2n1` [I-223], the figure is 101 to 500 nM. On the same count and under the same terms, as for `C=CC(=O)N[C@H]1CCCC[C@H]1Nc1ncc2c(n1)N(C)C(=O)N(c1c(F)c(OC)cc(OC)c1Br)C2` [I-228], the figure is 101 to 500 nM; as for `COc1cc(OC)c(Cl)c(N2Cc3cnc(Nc4ccccc4)nc3N(C)C2=O)c1Cl` [I-238], less than 100 nM; as for `C=CC(=O)N[C@@H]1COC[C@@H]1Nc1ncc2cc(-c3c(Cl)c(OC)cc(OC)c3Cl)c(=O)n(C)c2n1` [I-240], more than 1000 nM. The same measure, in the same setting: for `C=CC(=O)N[C@H]1COC[C@H]1Nc1ncc2cc(-c3c(Cl)c(OC)cc(OC)c3Cl)c(=O)n(C)c2n1` [I-241] the value was less than 100 nM. Regarding `C=CC(=O)Nc1cc(OC)ccc1Nc1ncc2cc(-c3c(Cl)c(OC)cc(OC)c3Cl)c(=O)n(C)c2n1` [I-242], the GI50 is less than 100 nM.
